Data taken from patent US3937818A, “Benzylamine narcotic antagonists” (American Home Products Corporation, priority 1974, dated 1976).

What follows are compounds tested on Morphine Induced Loss of Righting Reflex (assay: Antagonism of Morphine Induced Loss of Righting Reflex). Settings: Rattus norvegicus, im; rats; morphine base 75 mg/kg subcutaneously; antagonist intramuscularly 40 minutes after the morphine; measured at 20 minute intervals for 2 hours; read-out: ED50 (dose for 50 percent reversal of the loss of righting reflex).
Format: in vivo, male Charles River rats
Description: Groups of three male Charles River rats (160 to 200 g.) were dosed subcutaneously with morphine base at 75 mg/kg. The degree of narcosis was measured at 15 and 30 minutes after injection. Criterion was loss of righting reflex. Antagonists were administered 40 minutes after the morphine. The degree of antagonism was measured at 20 minute intervals for 2 hours. Nalorphine at 2 mg/kg. served as a positive control while one group of morphinized rats in each determination received no antagonist and served as negative controls. Compounds were dissolved in water or suspended in Tween-80 and water and were administered intramuscularly. Each dose of the antagonist was tested in a minimum of three experiments. At least three doses of each antagonist was used to determine the ED50. For each experiment the degree of reversal, by the antagonist, of the loss of righting reflex induced by morphine was calculated in the following manner. The total number of periods of loss of righting reflex in the experimental group was divided by the total number of periods of loss of righting reflex in the control group. This number was converted to percent and subtracted from 100 to give percent reversal of loss of righting reflex. The dose for which a 50 percent reversal of the loss of righting reflex was observed is the ED50.

Row | Structure (SMILES) | ED50
1 | CN(C)C(c1cccc(O)c1)[C@@H]1CCCC[C@@H]1OCc1ccccc1 (single isomer, unassigned) [(l)-α-dimethylamino-α-(cis-2-benzyloxycyclohexyl)-m-cresol] | 0.35 mg/kg
2 | CN(C)C(c1cccc(O)c1)[C@@H]1CCCC[C@@H]1OCc1ccccc1 (stereo partly drawn) [(dl)-α-dimethylamino-α-(cis-2-benzyloxycyclohexyl)-m-cresol] | 0.95 mg/kg
3 | CCO[C@@H]1CCCC[C@@H]1C(c1cccc(O)c1)N(C)C (stereo partly drawn) [(dl)-α-dimethylamino-α-(cis-2-ethoxycyclohexyl)-m-cresol] | 2 mg/kg
4 | C=CCN1CC[C@]23c4c5ccc(O)c4O[C@H]2[C@@H](O)C=C[C@H]3[C@H]1C5 [Nalorphine, reference compound] | 1 mg/kg
